The values below come from US20250177394A1, “COMBINATIONS OF CTPS1 AND BCL2 INHIBITORS FOR CANCER” (Step Pharma S.A.S., priority 2022, published 2025).

SMILES strings stand for the structures. Bounds are passed on as bounds.

In general, IC50 refers to the concentration that inhibits the measured activity by half. Read a high IC50 as lower potency.

Experiment [1] concerns human mantle cell lymphoma cell line. As to the kind of experiment: Western blot after exposure to CTPS1 inhibitor. Type of experiment: cell-based. To be noted: 24 hour exposure versus control; GAPDH loading control. Here is the method: Cells were incubated on ice for 40 minutes with lysis buffer then centrifuged at 11000 rpm for 30′. Total protein extracts were collected from supernatants and protein concentrations determined using a colorimetric assay. 30 μg of proteins were separated by SDS-PAGE using precast gels and transferred to membranes using the Trans-Blot Turbo system. Membranes were blocked for 1 hour in a 5% dry milk, TBS-Tween20 solution and incubated with primary antibodies overnight at 4° C. Membranes were incubated for at least 1 hour with secondary antibodies, either goat anti-mouse or goat anti-rabbit conjugated with peroxidase. Chemiluminescence was determined using the Clarity Western ECL Substrate on the Fusion FX imaging system.

Another experiment addresses human CTPS1 (Homo sapiens (Human), UniProt P17812). As to the kind of experiment: Human CTPS1 enzyme inhibition, ADP-Glo Max assay. Format: biochemical. To be noted: Human CTPS1 Enzyme Inhibition data. On the procedure: The enzyme inhibitory activities of compounds CTPS1-IA and CTPS1-IB against CTPS1 were determined using the ADP-Glo™ Max assay (Promega, UK).
Assays for human CTPS1 were performed in 1× assay buffer containing 50 mM Tris, 10 mM MgCl2, 0.01% Tween-20, pH to 8.0 accordingly. Finally, immediately before use, L-cysteine was added to the 1× assay buffer to a final concentration of 2 mM. All reagents are from Sigma-Aldrich unless specified otherwise. Human full length active C-terminal FLAG-His8-tag CTPS1 (UniProtKB—P17812, CTPS[1-591]-[…], SEQ ID NO: 1) was obtained from Proteros biostructures GmbH.
3× human CTPS1 protein was prepared in 1× assay buffer to the final working protein concentration required for the reaction. […] The enzymatic reaction was then initiated by addition of a 2 uL per well volume of a pre-mixed substrate mix (UltraPure ATP from ADP-Glo™ Max kit (0.31 mM), GTP (0.034 mM), UTP (0.48 mM) and L-glutamine (0.186 mM)) and the mixture was incubated for an appropriate amount of time within the determined linear phase of the reaction at 25° C. under sealed plate conditions with constant agitation at 500 revolutions per minute (rpm). ADP-Glo™ Max reagent was added for 60 minutes (6 μL per well) and subsequently ADP-Go™ Max development reagent was added for 60 minutes (12 uL per well) prior to signal detection in a microplate reader (EnVision® Multilabel Reader, Perkin Elmer). […]

Experiment [2] deals with human mantle cell lymphoma cell lines. As to the kind of experiment: RNA sequencing after exposure to CTPS1 inhibitor. Particulars: 24 hour exposure at IC50 versus control. Format: cell-based. Here is the method:
RNA was obtained from cancer cell lines treated with CTPS1-IA at IC50 or control for 24 hours. Libraries were prepared from 10 ng total RNA. mRNA poly(A) tails were tagged with universal adapters, sample-specific barcodes and unique molecular identifiers using template switching reverse transcriptase. Barcoded cDNAs from multiple samples were then pooled, amplified and tagmented using a transposon-fragmentation approach which enriches for 3′ ends of cDNA. A library of 350-800 bp length was run on an Illumina NovaSeq 6000 using NovaSeq 6000 SP Reagent Kit 100 cycles (ref #20027464). Raw fastq pairs used for analysis matched the following criteria: the 16 bases of the first read correspond to 6 bases for a sample-specific barcode and 10 bases for a unique molecular identifier. The second read (58 bases) corresponds to the captured poly(A) RNAs sequence. Demultiplexing of these fastq pairs was performed to generate one single-end fastq for each of the 96 samples. fastq files were then aligned with bwa to reference mRNA sequences and the mitochondrial genomic sequence (UCSC). DGE profiles were generated by parsing the alignment files (.bam) and counting for each sample the number of unique molecular identifiers associated with each RefSeq gene. Reads aligned on multiple genes, containing more than one mismatch with the reference sequence, or containing a polyA pattern were discarded. […]

For the next experiment, the system named is human CTPS1 versus CTPS2. As to the kind of experiment: Human CTPS1 versus CTPS2 selectivity assessment by RapidFire/MS. Format: biochemical. To be noted: fold selectivity between CTPS1 and CTPS2. Here is the method: The enzyme inhibitory activities against each target isoform of interest were determined for compounds using an optimised RapidFire high-throughput mass spectrometry (RF/MS) assay format. RF/MS assays for both human CTPS1 and CTPS2 were performed in assay buffer consisting of 50 mM HEPES (Merck), 20 mM MgCl2, 5 mM KCl, 1 mM DTT, 0.01% Tween-20, pH to 8.0 accordingly. Human full-length active C-terminal FLAG-His-tag CTPS1 (UniProtKB—P17812, CTPS[1-591]-[…], SEQ ID NO: 1) was obtained from Proteros biostructures GmbH. Human full length active C-terminal FLAG-His-Avi tagged CTPS2 (UniProtKB—Q9NRF8, CTPS2 [1-586]-[…], SEQ ID NO: 2) was obtained from Harker Bio.
Human CTPS (1 or 2) protein was prepared in 1× assay buffer to the final working protein concentration required for the reaction. A 2 uL volume per well of 2×CTPS (1 or 2) protein was mixed with 40 nL of compound using acoustic (ECHO) delivery and incubated for 10 minutes at 25° C. […] Each mixture was incubated for an appropriate amount of time per isoform within the determined linear phase of the reaction at 25° C. […]
In all cases, the enzyme converts UTP to CTP. […] Readout for data analysis was calculated as the ratio between the peak area of the product CTP and the internal standard ^13C9-^15N3-CTP. […]
Fold selectivity between CTPS1 and CTPS2 was subsequently calculated according to the following equation: […]

Chain of human CTPS1 (P17812 whole entry): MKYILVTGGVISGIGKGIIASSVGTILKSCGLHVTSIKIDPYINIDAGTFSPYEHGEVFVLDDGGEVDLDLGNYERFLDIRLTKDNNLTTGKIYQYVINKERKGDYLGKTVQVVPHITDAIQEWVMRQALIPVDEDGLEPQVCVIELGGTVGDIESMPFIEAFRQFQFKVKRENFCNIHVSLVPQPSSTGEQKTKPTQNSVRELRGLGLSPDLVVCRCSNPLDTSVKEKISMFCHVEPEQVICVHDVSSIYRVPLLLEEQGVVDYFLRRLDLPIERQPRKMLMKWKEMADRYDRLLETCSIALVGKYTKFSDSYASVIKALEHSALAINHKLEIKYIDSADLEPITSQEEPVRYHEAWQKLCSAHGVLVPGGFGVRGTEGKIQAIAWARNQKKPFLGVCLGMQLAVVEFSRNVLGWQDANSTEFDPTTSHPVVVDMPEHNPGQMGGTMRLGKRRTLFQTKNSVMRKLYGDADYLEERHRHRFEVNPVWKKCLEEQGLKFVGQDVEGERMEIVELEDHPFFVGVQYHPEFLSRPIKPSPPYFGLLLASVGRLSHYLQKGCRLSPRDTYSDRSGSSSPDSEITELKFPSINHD

For the molecule `CCOc1cncc(-c2ccc(NC(=O)C3(c4ccnc(NS(=O)(=O)C5CC5)n4)CCOCC3)nc2)n1` [CTPS1-IA, 4-(2-(cyclopropanesulfonamido)pyrimidin-4-yl)-N-(5-(6-ethoxypyrazin-2-yl)pyridin-2-yl)tetrahydro-2H-pyran-4-carboxamide], in experiment [1], the BCL2 protein entry is “increase” and the MCL1 protein result is “decrease”. Further, the IC50 on human CTPS1 is at most 100 nM. Further, in experiment [2], the BCL2 transcripts result is on record as “increase” and the MCL1 transcripts result was “decrease”. Besides, the Selectivity with human CTPS1 versus CTPS2 was over 60 fold.

`CCOc1cncc(-c2ccc(NC(=O)C3(c4ccnc(NS(=O)(=O)CC)n4)CCOCC3)nc2)n1` [CTPS1-IB, N-(5-(6-ethoxypyrazin-2-yl)pyridin-2-yl)-4-(2-(ethylsulfonamido)pyrimidin-4-yl)tetrahydro-2H-pyran-4-carboxamide] registered an IC50 at human CTPS1 of at most 100 nM. In the experiment with human CTPS1 versus CTPS2, this molecule returned a Selectivity of over 60 fold.
